From patent US9040252B2, “Method for increasing and regulating light emission from a chemiluminescent reaction” (Cyanagen S.R.L., priority 2010, dated 2015)

Biological target: T1, horseradish peroxidase (HRP-type VIA) (Armoracia rusticana, UniProt P00433)
T1 construct: purchased Sigma-Aldrich
T1 sequence (P00433 31-338 limits assumed): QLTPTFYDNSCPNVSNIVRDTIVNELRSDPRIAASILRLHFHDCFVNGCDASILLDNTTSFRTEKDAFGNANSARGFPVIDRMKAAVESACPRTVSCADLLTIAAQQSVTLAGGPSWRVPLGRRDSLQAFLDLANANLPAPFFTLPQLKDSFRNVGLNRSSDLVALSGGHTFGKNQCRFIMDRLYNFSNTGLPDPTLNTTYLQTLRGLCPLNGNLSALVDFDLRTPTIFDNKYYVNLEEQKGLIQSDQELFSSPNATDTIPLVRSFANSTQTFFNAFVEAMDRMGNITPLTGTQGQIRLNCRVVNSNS
Experiment: Dependence of the enhanced luminol-peroxide-peroxidase chemiluminescent reaction on secondary enhancer concentration
Assay type: biochemical
Conditions: pH 9.00 Tris buffer; initial light output, FIG. 4
Procedure: All measurements reported in Examples were carried out with a Varian Eclipse spectrofluorimeter and the following settings: bio/chemiluminescence mode; emission wavelength: 425 nm; emission slit: 20 nm; Photomultiplier Detection Voltage: medium.
A series of chemiluminescent substrates in 0.15 M, pH 9.00+−0.05 Tris buffer, is prepared, with the following compositions:
[luminol sodium salt]=5 mM
[sodium 3-(phenothiazin-10-yl)propane-1-sulfonate]=3 mM secondary enhancer=MORP, imidazole, 1-methylimidazole, 1,2,3-triazole, 1,2,4-triazole at the following concentrations:
A series of disposable polymethylmethacrylate cuvettes is prepared, each containing 2 mL of substrate solution. To each cuvette are added 10 μL of a 2 μg/mL horseradish peroxidase solution (HRP-type VIA) solution and simultaneously a 30 seconds countdown is started. The cuvette is closed with a square piece of parafilm and vortexed for 3 seconds. The cuvette is then inserted into the spectrofluorimeter. At the end of the 30 seconds countdown measurement of the luminescent signal is initiated and recorded for a 900 sec period. In all cases the signal reaches a plateau level within 30 seconds after the addition of the peroxidase, and then begins to slowly decrease. Initial, plateau levels are plotted vs. secondary enhancer concentration, FIG. 4. As it can be seen, the effect of MORP on signal intensity is quite strong even at very low concentrations. Signal output reaches a sharp maximum at about 1.5 mM of MORP and then falls abruptly. In contrast, N-azoles exert a much more gradual effect on signal intensity, reaching a plateau at much higher concentration levels. Thus, they afford a considerable degree of regulation of the chemiluminescent light output, which cannot be obtained with dialkylaminopyridine secondary enhancers such as MORP.

Row | Structure (SMILES) | behaviour of enhancement effect with increasing secondary enhancer concentration
1 | c1cc(N2CCOCC2)ccn1 [MORP, 4-morpholinopyridine, reference compound] | sharply decreases its enhancement effect with a further increase in concentration
2 | c1c[nH]cn1 [imidazole] | begin to slowly decrease their action at very high concentration
3 | Cn1ccnc1 [1-methylimidazole] | tend to reach a plateau
4 | c1nc[nH]n1 [1,2,4-triazole] | tend to reach a plateau
5 | c1c[nH]nn1 [1,2,3-triazole] | tend to reach a plateau
